Data: patent US12459951B2, “Compounds that interact with RAS superfamily proteins for treatment of cancers, inflammatory diseases, rasopathies, and fibrotic disease” (SHY Therapeutics, LLC, priority 2022, dated 2025)

Assays:
[1] = tested on: Erk1/2 phosphorylation; experiment: Erk1/2 Phosphorylation Assay (western blot), Panc-1; format: cell-based, human; details: at 10 μM, * = activation
Procedure, shortened: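 KRas G12D Panc-1 cells were treated 6 h at 37° C with compound at 10 μM or serial dilutions for IC50 (0.3% DMSO). In method 1, cells were serum-starved overnight (0.5% FBS) and then given 1.5 ng/ml EGF for 15 min. In method 2, cells stayed in 10% FBS without stimulation. Lysate phospho-Erk1/2 (Thr202/Tyr204) was read by western blot.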

[2] = tested on: KRas G12D mutant; experiment: Ras GTP Binding Domain Inhibition Assay (Ras Superfamily Assay); details: 20 μM compound; for KRas G12D mutant + SOS: % inh.: with SOS; for KRas G12D mutant: % inh.: without SOS
Procedure, shortened: (§1)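 His-tagged GTPases immobilised on nickel-coated plates, pre-incubated with compound (20 μM single point, or serial dilution for IC50) 3 h at room temperature, with or without 10-30 μg/mL Sos (residues 556-1049) in the final hour. Bound Cy3- or Cy5-GTP (100 nM, 45 min) measured by fluorescence after washing.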

[3] = target: T1, Rho-A (Homo sapiens, UniProt P61586); experiment: as above; details: read-out: Rho-A: % inh..
T1 construct: made in house
T1 sequence (P61586 whole entry): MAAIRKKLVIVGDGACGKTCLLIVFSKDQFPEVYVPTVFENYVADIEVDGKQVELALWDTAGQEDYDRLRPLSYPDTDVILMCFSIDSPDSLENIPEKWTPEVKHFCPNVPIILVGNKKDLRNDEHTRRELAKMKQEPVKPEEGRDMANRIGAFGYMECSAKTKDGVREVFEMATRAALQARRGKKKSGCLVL
Procedure, shortened: as §1

[4] = tested on: KRas G12C mutant; experiment: as above; details: 20 μM compound; for KRas G12C mutant + SOS: % inh.: with SOS; for KRas G12C mutant: % inh.: without SOS
Procedure, shortened: as §1

[5] = target: T2, Rac-1 (Homo sapiens, UniProt P63000); experiment: as above; details: read-out: Rac-1: % inh.
T2 construct: made in house
Procedure, shortened: as §1

[6] = tested on: KRas wild type; experiment: as above; details: 20 μM compound; for KRas wild type + SOS: % inh.: with SOS; for KRas wild type: % inh.: without SOS
Procedure, shortened: as §1

[7] = tested on: KRas Q61H mutant; experiment: as above; details: 20 μM compound; for KRas Q61H mutant + SOS: % inh.: with SOS; for KRas Q61H mutant: % inh.: without SOS
Procedure, shortened: as §1

[8] = tested on: TNF-alpha; experiment: TNF-alpha Quantification Assay (ELISA), LPS-stimulated RAW 264.7; format: cell-based; details: Mus musculus, RAW264.7; at 10 μM; read-out: TNFα: % inh.

KRas G12D mutant + SOS: % inh. [2]	KRas G12D mutant: % inh. [2]	inhibition at 20 µM [3] [%]	KRas G12C mutant + SOS: % inh. [4]	KRas G12C mutant: % inh. [4]	inhibition at 20 µM [5] [%]	KRas wild type + SOS: % inh. [6]	KRas wild type: % inh. [6]	KRas Q61H mutant + SOS: % inh. [7]	KRas Q61H mutant: % inh. [7]	Compound	% inh of Erk1/2 phosphorylation in Panc-1 [1]	inhibition at 10 µM [8] [%]
A (A = 1-25% inhibition)	A (A = 1-25% inhibition)	1 to 25	0 (0 = 0% inhibition)	A (A = 1-25% inhibition)	1 to 25	0 (0 = 0% inhibition)	A (A = 1-25% inhibition)	0 (0 = 0% inhibition)	A (A = 1-25% inhibition)	Cc1c(-c2ccn(C(C)C)n2)cn2nc(-c3nccn3C)nc(Nc3cc(C4CC4)no3)c12 [Compound 69, 3-Cyclopropyl-N-(6-(1-isopropyl-1H-pyrazol-3-yl)-5-methyl-2-(1-methyl-1H-imidazol-2-yl)pyrrolo[2,1-f][1,2,4]triazin-4-yl)isoxazol-5-amine]	D* (85-100% activation)	1 to 24
A (A = 1-25% inhibition)	A (A = 1-25% inhibition)	1 to 25	0 (0 = 0% inhibition)	A (A = 1-25% inhibition)	1 to 25	0 (0 = 0% inhibition)	A (A = 1-25% inhibition)	0 (0 = 0% inhibition)	A (A = 1-25% inhibition)	Cc1c(-c2ccn(C(C)C)n2)cn2nc(-c3nccn3C)nc(Nc3nc(C4CC4)no3)c12 [Compound 70, 3-Cyclopropyl-N-(6-(1-isopropyl-1H-pyrazol-3-yl)-5-methyl-2-(1-methyl-1H-imidazol-2-yl)pyrrolo[2,1-f][1,2,4]triazin-4-yl)-1,2,4-oxadiazol-5-amine]	B* (26-49% activation)	1 to 24
A (A = 1-25% inhibition)	A (A = 1-25% inhibition)	1 to 25	A (A = 1-25% inhibition)	0 (0 = 0% inhibition)	1 to 25	A (A = 1-25% inhibition)	0 (0 = 0% inhibition)	0 (0 = 0% inhibition)	0 (0 = 0% inhibition)	COc1ccc(Nc2nc(-c3nccn3C)nn3cc(-c4ccn(C(C)C)n4)c(C)c23)cn1 [Compound 71, 6-(1-Isopropyl-1H-pyrazol-3-yl)-N-(6-methoxypyridin-3-yl)-5-methyl-2-(1-methyl-1H-imidazol-2-yl)pyrrolo[2,1-f][1,2,4]triazin-4-amine]	D* (85-100% activation)	0
D (D = 76-100% inhibition)	D (D = 76-100% inhibition)	76 to 100	C (C = 50-75% inhibition)	C (C = 50-75% inhibition)	76 to 100	C (C = 50-75% inhibition)	C (C = 50-75% inhibition)	D (D = 76-100% inhibition)	C (C = 50-75% inhibition)	Cc1c(-c2ccn(C(C)C)n2)cn2nc(-c3nccn3C)nc(Nc3ccn(C(C)C)n3)c12 [Compound 72, N,6-bis(1-Isopropyl-1H-pyrazol-3-yl)-5-methyl-2-(1-methyl-1H-imidazol-2-yl)pyrrolo[2,1-f][1,2,4]triazin-4-amine]	D* (85-100% activation)	1 to 24
B (B = 26-49% inhibition)	C (C = 50-75% inhibition)	76 to 100	B (B = 26-49% inhibition)	B (B = 26-49% inhibition)	50 to 75	B (B = 26-49% inhibition)	C (C = 50-75% inhibition)	C (C = 50-75% inhibition)	C (C = 50-75% inhibition)	COc1cncnc1Nc1nc(-c2nccn2C)nn2cc(-c3ccn(C(C)C)n3)c(C)c12 [Compound 73, 6-(1-Isopropyl-1H-pyrazol-3-yl)-N-(5-methoxypyrimidin-4-yl)-5-methyl-2-(1-methyl-1H-imidazol-2-yl)pyrrolo[2,1-f][1,2,4]triazin-4-amine]	D* (85-100% activation)	0
